Holding throughout (assay type): biochemical
In one assay the test system is Aβ 1-42 amyloid fibrils. As to the kind of experiment: Thioflavin T fluorometry: disassembly/disruption of pre-formed Aβ 1-42 amyloid fibrils. As to conditions: for Fluorescence inhibition, %, at the Aβ 1-42:compound w/w ratios given: overnight (~18 hours) at 37°C, pH 7.0, mean of triplicate ± standard deviation. Here is the method:
For the first study, 1 mg of Aβ 1-42 (Bachem Inc., Torrance, CA, USA) was dissolved in 1.0 ml of double distilled water (1 mg/ml solution). 25 µM of Aβ 1-42 was then incubated overnight (~18 hours) at 37°C, in the absence or presence of 100µg/ml of the following compounds: 1) EDTA (Sigma Chemical Company, St. Louis, MO, USA), 2) myricetin (Acros, Somerville, New Jersey, USA), 3) exifone (Acros) 4) pyrogallol (Sigma), 5) tannic acid (Acros), 6) pyrocatechol (Acros), 7) quercetin (Sigma), 8) ellagic acid (Acros), 9) 1,2,4-benzenetriol (Acros), 10) 5-hydroxydopamine (Acros), 11) gallamide hydrate (Acros), 12) gallic acid (Sigma), 13) ethyl gallate (Acros), 14) quinic acid (Acros), 15) propyl gallate (Sigma), and 16) phloroglucide (Acros), each in the presence of 150 mM Tris HCl, 10 mM NaCl (pH 7.0) with 0.02% sodium azide. In this study, the Aβ 1-42:compound weight ratio was 1:1.
For the second study, 1 mg of Aβ 1-42 (Bachem) was dissolved in 1.0 ml of double distilled water (1 mg/ml solution). 25 µM of Aβ 1-42 was then incubated overnight (~18 hours) at 37°C, in the absence or presence of 50µg/ml of the following compounds: 1) gallic acid, 2) ethyl gallate, 3) quinic acid, 4) gallamide trihydrate, 5) ellagic acid, 6) propyl gallate, and 7) pyrogallol, each in the presence of 150 mM Tris HCl, 10 mM NaCl (pH 7.0) with 0.02% sodium azide. In this study, the Aβ 1-42:compound weight ratio was 2:1.
Thioflavin T is known to bind to fibrillar amyloid proteins, and an increase in fluorescence correlates with an increase in amyloid fibril formation, whereas a decrease in fluorescence correlates with a decrease in amyloid fibrils due to disassembly and/or disruption. The Alzheimer's Aβ protein (1-42) when placed in solution, such as distilled water, tends to spontaneously form amyloid fibrils. Using this sensitive assay, any decreases or increases in fluorescence was previously shown to correlate with a decrease or increase in the amount of amyloid fibrils (see the documents cited above), allowing one to identify and quantitate the extent of potential inhibitors and/or enhancers of Alzheimer's Aβ 1-42 amyloid fibrils.
To assess the effects of each compound on potential disassembly/ disruption of preformed Aβ 1-42 fibrils, 50 µl of Aβ 1-42 with or without test compounds (described above) were added to 1.2 ml of 100µM Thioflavin T (Sigma) in 50mM NaH2PO4 (pH 6.0) for fluorometry readings. […] Fluorescence emission at 482 nm was measured on a Turner instrument-model 450 fluorometer at an excitation wavelength of 450 nm. For each determination, the fluorometer was calibrated by zeroing in the presence of the Thioflavin T reagent alone, and by setting the 50 ng/ml riboflavin (Sigma Chemical Co., St. Louis, MO) in the Thioflavin T reagent to 1800 fluorescence units. All fluorescence determinations were based on these references and any fluorescence given off by any of the compounds in the presence of the Thioflavin T reagent was always subtracted from all pertinent readings.
For all fibrillogenesis studies utilizing Thioflavin T fluorometry, as disclosed herein, comparisons of amyloid protein in the presence or absence of test compounds were based on paired Student's t tests with data shown as the mean of triplicate measurements ± standard deviation.

The next assay deals with Aβ 1-40 amyloid fibrils. As to the kind of experiment: Modified Congo red-Aβ spectrophotometric assay: disaggregation of pre-formed Aβ 1-40 fibrils (3 days incubation). As to conditions: Aβ:compound weight ratio 2:1; fibrillized Aβ 1-40 incubated with compound 3 days at 37°C in TBS pH 7.0; Δ absorbance at 540 nm; triplicate. As to the method: In this study, a Congo red-Aβ spectrophotometric assay (Klunk et al., Anal. Biochem. 266:66-76, 1999) was modified to determine the effectiveness of polyhydroxylated aromatic compounds on the disaggregation of pre-formed Aβ 1-40 amyloid fibrils. For this assay, 1 mg of Aβ 1-40 (Bachem) was incubated for 4 days in distilled water at 37°C to spontaneously produce amyloid fibrils. 25pM of fibrillized Aβ 1-40 was then incubated in triplicate with various test compounds for 3 days at 37°C in Tris-buffered saline (TBS)(100 mM Tris; 50 mM NaCl; pH 7.0, with 0.02% sodium azide), at an Aβ:compound weight ratio of 2:1. Following incubation, 50µl of 360 µM Congo red (Sigma) in distilled water was then added to 250 µl of each incubation mixture, giving a final Aβ:Congo red molar ratio of 1:3. After 10 minutes, the absorbance at 405 nm (reference wavelength to account for the absorbance of Congo red alone at 540 nm) and 540 nm (sample absorbance where "sample" refers to Aβ alone, test compound alone, or Aβ plus test compound, all in the presence of Congo red) was determined using a Biorad Model 550 BLISA Plate Reader (Biorad, Hercules, CA, USA). The absorbance at wavelength 405 nm was automatically subtracted by the ELISA plate reader from the absorbance at wavelength 540 nm (difference is referred to as Δ absorbance)(see Klunk et al. cited above). Therefore, the Δ absorbance reading at 540 nm was proportional to the amount of aggregated Aβ left in solution (Klunk et al.).
For all experiments involving test compounds, the Δ absorbance reading at 540 nm of the test compound alone (in the absence of Aβ), was always subtracted from the corresponding Δ absorbance reading at 540 nm of the test compound in the presence of Aβ. Using this modification of the method of Klunk et al., the use of a greater final concentration of Congo red, i.e. 60µM instead of 14µM, in the presence of fibrillar Aβ gave an overall absorbance at 540 nm that was always below 1.0 Absorbance Unit (AU), and well within the linear absorbance range.
The following polyhydroxylated aromatic containing compounds were tested using the above described Congo red-Aβ spectrophotometric assay to determine their effectiveness on disaggregation of pre-formed Aβ 1-40 amyloid fibrils: 1) gallic acid, 2) ethyl gallate, 3) quinic acid, 4) gallamide trihydrate, 5) ellagic acid, 6) propyl gallate, and 7) pyrogallol.

Assay [1] addresses T1, human amylin (Homo sapiens, UniProt P10997).
T1 construct: This amyloid protein involved consists of a 37 amino acid protein known as islet amyloid polypeptide or amylin; purchased Bachem
T1 sequence (P10997 34-70 limits assumed): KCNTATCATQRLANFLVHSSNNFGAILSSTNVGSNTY
As to the kind of experiment: Congo red staining of amylin fibrils on gelatin-coated slides (polarized light). The conditions noted are these: result in words; amylin + compound after overnight incubation, compared with amylin alone. As to the method:
Following Thioflavin T fluorometry readings as described in Example 1, 5µl aliquots of amylin only, amylin + myricetin, amylin + exifone, and amylin + tannic acid were also taken, allowed to air dry overnight on gelatin-coated slides, and stained with Congo red as previously described (Castillo et al., Diabetes 47:612-620, 1998).

Assay [2] concerns the target T1, human amylin. As to the kind of experiment: Thioflavin T fluorometry: disassembly/disruption of islet amyloid (amylin) fibrils. The conditions noted are these: 25 µM human amylin, 100µg/ml compound, amylin:compound weight ratio 1:1, overnight (~18 hours) at 37°C, pH 7.0; read-out: Fluorescence inhibition, %.
[3] abbreviates: Aβ 1-42:compound w/w ratio 2:1, 25 µM Aβ 1-42, 50µg/ml compound.
The mark [4] stands for this setting: Aβ 1-42:compound w/w ratio 1:1, 25 µM Aβ 1-42, 100µg/ml compound.

For orientation: inhibition means the relative decrease from the control value, in per cent.

Marks after values point to notes of the source that are not given here.

As for `O=C(O)CN(CCN(CC(=O)O)CC(=O)O)CC(=O)O` [EDTA, reference compound], in the assay with Aβ 1-42 amyloid fibrils (result in words, 100µg/ml compound, 25 µM Aβ 1-42, weight ratio 1:1, overnight at 37°C), the “disassembly/disruption of Aβ 1-42 amyloid fibrils” value was “no significant disassembly/disruption”.

In the case of `O=c1oc2c(O)c(O)cc3c(=O)oc4c(O)c(O)cc1c4c23` [Ellagic acid, ellagic acid], the “Decrease in absorbance, %” value in the assay on Aβ 1-40 amyloid fibrils was 54 ± 2.8%. Besides, the “Fluorescence inhibition, %, at the Aβ 1-42:compound w/w ratios given” value in the assay with Aβ 1-42 amyloid fibrils (setting [3]) worked out at 62 ± 3.9%.

With `CCOC(=O)c1cc(O)c(O)c(O)c1` [Ethyl gallate, ethyl gallate], the “Decrease in absorbance, %” value in the assay with Aβ 1-40 amyloid fibrils worked out at 28 ± 5.0%. Besides, in the assay on Aβ 1-42 amyloid fibrils (setting [3]), the “Fluorescence inhibition, %, at the Aβ 1-42:compound w/w ratios given” value is 30 ± 3.7%. Regarding `O=C(c1cc(O)c(O)c(O)c1)c1ccc(O)c(O)c1O` [Exifone, exifone], the “Fluorescence inhibition, %, at the Aβ 1-42:compound w/w ratios given” value in the assay on Aβ 1-42 amyloid fibrils (setting [4]) came to 93 ± 1.4%. Also, the Congo red staining result on human amylin [1] is reported as “marked decrease in Congo red staining”. Further, on human amylin [2], the inhibition at 100 µg/mL came out at 99.1 ± 0.5%. Take `NC(=O)c1cc(O)c(O)c(O)c1.O.O.O` [Gallamide trihydrate, gallamide trihydrate]: the “Decrease in absorbance, %” value in the assay on Aβ 1-40 amyloid fibrils stood at 31 ± 1.9%. Further, the “Fluorescence inhibition, %, at the Aβ 1-42:compound w/w ratios given” value with Aβ 1-42 amyloid fibrils (setting [3]) was 60 ± 2.2%.

As for `O=c1c(O)c(-c2cc(O)c(O)c(O)c2)oc2cc(O)cc(O)c12` [Myricetin, myricetin], on human amylin [1], the Congo red staining entry was “marked decrease in Congo red staining”. Besides, the inhibition at 100 µg/mL on human amylin [2] was determined as 97.4 ± 0.3%. With `Oc1cc(O)cc(-c2c(O)cc(O)cc2O)c1` [Phloroglucide, phloroglucide], the “Fluorescence inhibition, %, at the Aβ 1-42:compound w/w ratios given” value in the assay with Aβ 1-42 amyloid fibrils (setting [4]) is reported as 30 ± 0.6%. `CCCOC(=O)c1cc(O)c(O)c(O)c1` [Propyl gallate, propyl gallate]: the “Decrease in absorbance, %” value in the assay with Aβ 1-40 amyloid fibrils turned out to be 17 ± 7.3 %. The “Fluorescence inhibition, %, at the Aβ 1-42:compound w/w ratios given” value in the assay with Aβ 1-42 amyloid fibrils (setting [3]) stood at 38 ± 4.8%. The matching figures for `Oc1cccc(O)c1O` [Pyrogallol, pyrogallol]: 63 ± 3.4% and 72 ± 3.8%.

Turning to `O=C(O)[C@]1(O)C[C@@H](O)[C@@H](O)[C@H](O)C1` [Quinic acid, quinic acid], the “Decrease in absorbance, %” value with Aβ 1-40 amyloid fibrils is given as 0 + 5.0** %. In the assay on Aβ 1-42 amyloid fibrils (setting [3]), the “Fluorescence inhibition, %, at the Aβ 1-42:compound w/w ratios given” value is on record as 0.5 ± 3.9 %.
